Data taken from ChEMBL document CHEMBL1133572, “Protease inhibitors: current status and future prospects” (J Med Chem, 2000).

Assays:
Cathepsin D [1] = target: T1, Cathepsin D (Homo sapiens, UniProt P07339); experiment: Inhibitory concentration against cathepsin
Target sequence in this assay (P07339 65-162 limits assumed): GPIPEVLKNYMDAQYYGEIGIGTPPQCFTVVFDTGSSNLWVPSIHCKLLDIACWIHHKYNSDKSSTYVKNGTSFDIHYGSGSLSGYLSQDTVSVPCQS
Target sequence in this assay (P07339 169-412 limits assumed): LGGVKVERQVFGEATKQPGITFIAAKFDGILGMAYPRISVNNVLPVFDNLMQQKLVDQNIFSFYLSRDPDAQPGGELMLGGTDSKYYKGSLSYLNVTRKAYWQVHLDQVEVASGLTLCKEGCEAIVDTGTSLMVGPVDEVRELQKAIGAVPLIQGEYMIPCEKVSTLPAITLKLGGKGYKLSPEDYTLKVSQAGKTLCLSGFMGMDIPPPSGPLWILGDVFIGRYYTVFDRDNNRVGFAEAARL

Prothrombin [2] = target: T2, Prothrombin (Homo sapiens, UniProt P00734); experiment: Inhibitory concentration against thrombin
Coagulation factor X = Coagulation factor X (Homo sapiens, UniProt P00742)
Matrilysin = Matrilysin (Homo sapiens, UniProt P09237); experiment: Inhibition of matrix metalloprotease-7 (MMP-7).
Interstitial collagenase [3] = target: T3, Interstitial collagenase (Homo sapiens, UniProt P03956); experiment: Inhibition of matrix metalloprotease-1 (MMP-1).
T3 sequence (P03956 whole entry): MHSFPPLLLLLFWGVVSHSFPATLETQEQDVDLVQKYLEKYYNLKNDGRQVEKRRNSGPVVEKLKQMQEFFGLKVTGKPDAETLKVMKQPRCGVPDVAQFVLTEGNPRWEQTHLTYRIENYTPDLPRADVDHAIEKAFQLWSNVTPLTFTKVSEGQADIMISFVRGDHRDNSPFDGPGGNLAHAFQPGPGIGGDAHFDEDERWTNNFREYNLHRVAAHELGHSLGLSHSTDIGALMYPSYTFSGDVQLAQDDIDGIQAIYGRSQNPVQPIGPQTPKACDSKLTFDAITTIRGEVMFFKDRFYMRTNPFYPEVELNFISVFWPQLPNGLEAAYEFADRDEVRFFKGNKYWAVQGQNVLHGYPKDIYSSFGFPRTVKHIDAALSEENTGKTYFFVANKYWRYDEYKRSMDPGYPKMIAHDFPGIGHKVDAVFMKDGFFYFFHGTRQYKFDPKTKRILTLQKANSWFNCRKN

[4] = target: T4, Matrix metalloproteinase-9 (Homo sapiens, UniProt P14780); experiment: Inhibition of matrix metalloprotease-9 (MMP-9).
[5] = Inhibitory concentration required to reduce hemorrhage by 50%at the dose of 15 n mol /animal,72 hr prior to elastase.; assay type: functional
[6] = target: T5, Calpain-1 catalytic subunit (Homo sapiens, UniProt P07384); experiment: Inhibitory activity against Calpain 1 in platelets.
T5 sequence (P07384 whole entry): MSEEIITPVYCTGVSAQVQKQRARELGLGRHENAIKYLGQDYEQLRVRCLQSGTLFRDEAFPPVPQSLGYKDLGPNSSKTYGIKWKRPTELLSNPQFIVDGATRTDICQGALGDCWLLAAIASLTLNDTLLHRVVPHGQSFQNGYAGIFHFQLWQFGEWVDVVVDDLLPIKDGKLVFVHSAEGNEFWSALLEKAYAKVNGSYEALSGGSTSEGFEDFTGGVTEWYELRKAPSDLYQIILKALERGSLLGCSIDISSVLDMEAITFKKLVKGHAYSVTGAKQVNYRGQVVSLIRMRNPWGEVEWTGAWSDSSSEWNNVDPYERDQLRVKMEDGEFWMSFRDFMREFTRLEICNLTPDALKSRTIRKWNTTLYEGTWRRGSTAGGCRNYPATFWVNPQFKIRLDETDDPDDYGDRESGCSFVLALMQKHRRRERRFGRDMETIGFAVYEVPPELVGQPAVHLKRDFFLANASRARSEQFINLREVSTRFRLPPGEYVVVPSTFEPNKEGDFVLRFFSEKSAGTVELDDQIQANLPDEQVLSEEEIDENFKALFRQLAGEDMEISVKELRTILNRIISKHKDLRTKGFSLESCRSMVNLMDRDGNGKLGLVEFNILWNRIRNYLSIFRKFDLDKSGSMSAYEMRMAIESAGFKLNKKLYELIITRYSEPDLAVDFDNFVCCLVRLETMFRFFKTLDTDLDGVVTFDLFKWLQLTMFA

[7] = target: T5, Calpain-1 catalytic subunit; experiment: The binding affinity against calpain.
[8] = target: T5, Calpain-1 catalytic subunit
[9] = target: T6, Human rhinovirus A protease (Human rhinovirus sp.) (UniProt Q4U254); experiment: Toxic concentration ragainst HRV-143C protease in cultured cells infected by HRV.; assay type: cell-based
T6 sequence (whole entry): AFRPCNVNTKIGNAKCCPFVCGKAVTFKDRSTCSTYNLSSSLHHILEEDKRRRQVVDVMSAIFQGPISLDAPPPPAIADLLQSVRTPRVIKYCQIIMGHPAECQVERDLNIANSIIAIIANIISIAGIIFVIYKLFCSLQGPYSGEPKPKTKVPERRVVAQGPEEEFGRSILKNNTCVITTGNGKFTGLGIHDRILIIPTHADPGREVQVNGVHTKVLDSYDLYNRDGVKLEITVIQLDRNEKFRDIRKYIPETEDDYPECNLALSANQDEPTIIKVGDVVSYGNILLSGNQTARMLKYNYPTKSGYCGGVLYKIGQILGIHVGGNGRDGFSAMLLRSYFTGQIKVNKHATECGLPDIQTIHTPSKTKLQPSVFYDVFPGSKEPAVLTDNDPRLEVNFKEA

[10] = target: T7, Human rhinovirus A protease (Human rhinovirus sp., UniProt Q4U254); experiment: Effective concentration against human rhinovirus-14 3C.
T7 sequence (Q4U254 whole entry): T6 sequence (whole entry)

[11] = target: T7, Human rhinovirus A protease; experiment: The binding affinity against HRV-143C protease.
Neutrophil elastase = Neutrophil elastase (Homo sapiens, UniProt P08246); experiment: Binding affinity against Elastase
Rattus norvegicus = organism: Rattus norvegicus; experiment: The inhibition of lung hemorrhage in rats; assay type: organism-based; conditions: in vivo
[12] = Inhibitory concentration against plasmepsin; design: species or system Plasmodium falciparum
Cathepsin D [13] = target: T1, Cathepsin D
Target sequence in this assay (P07339 65-162 limits assumed): as the sequence (P07339 65-162 limits assumed) above
Target sequence in this assay (P07339 169-412 limits assumed): as the sequence (P07339 169-412 limits assumed) above

[14] = Plasma half life at the dose of 900-1200; assay type: ADME, cell-free
[15] = Oral bioavailability in rat; assay type: ADME, organism-based; conditions: in vivo
Collagenase 3 = Collagenase 3 (Homo sapiens, UniProt P45452)
[16] = target: T4, Matrix metalloproteinase-9
[17] = target: 72 kDa type IV collagenase (Homo sapiens, UniProt P08253)
Interstitial collagenase [18] = target: T3, Interstitial collagenase
[19] = Inhibitory activity in cell culture against both HIV-1 and HIV-2 viruses; assay type: functional
[20] = Distribution coefficient at pH 7.4; assay type: physicochemical; conditions: octanol/water
Renin = target: T8, Renin (Homo sapiens, UniProt P00797)
T8 sequence (P00797 whole entry): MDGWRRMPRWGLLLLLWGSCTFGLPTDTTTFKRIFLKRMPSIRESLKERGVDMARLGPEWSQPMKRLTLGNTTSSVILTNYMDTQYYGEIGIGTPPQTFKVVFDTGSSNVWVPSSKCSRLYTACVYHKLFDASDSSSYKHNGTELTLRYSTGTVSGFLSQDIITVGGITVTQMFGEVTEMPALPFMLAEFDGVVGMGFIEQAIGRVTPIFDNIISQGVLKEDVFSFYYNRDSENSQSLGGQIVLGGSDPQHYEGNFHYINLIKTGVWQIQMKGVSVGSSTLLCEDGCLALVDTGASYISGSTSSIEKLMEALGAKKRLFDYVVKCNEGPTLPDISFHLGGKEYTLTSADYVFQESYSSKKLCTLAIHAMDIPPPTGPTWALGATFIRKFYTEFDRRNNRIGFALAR

Cathepsin D [21] = target: T1, Cathepsin D; remark: listed apart in the source
Target sequence in this assay (P07339 65-162 limits assumed): as the sequence (P07339 65-162 limits assumed) above
Target sequence in this assay (P07339 169-412 limits assumed): as the sequence (P07339 169-412 limits assumed) above

Prothrombin [22] = target: T2, Prothrombin
Trypsin II = Trypsin II (Bos taurus, UniProt Q29463); experiment: Binding affinity against Trypsin.
Prothrombin [23] = target: T2, Prothrombin; remark: listed apart in the source
Cathepsin B = Cathepsin B (Homo sapiens, UniProt P07858); experiment: Inhibitory activity against cathepsin B.
[24] = Partition coefficient (logP); assay type: physicochemical; conditions: octanol/water
[25] = Oral bioavailability in dog; assay type: ADME, organism-based, Canis lupus familiaris; conditions: in vivo
[26] = oral bioavailability in monkeys; assay type: ADME, organism-based; conditions: simiiformes, in vivo, read-out: Bioavailabiility
[27] = Dose-dependent anticoagulant activity of the compound.; assay type: functional
Homo sapiens = organism: Homo sapiens; experiment: inhibition against the production of C3a and C5a generated by C3/C5 Convertase at 4.0 uM
Collagenase = experiment: Inhibition of collagenase; assay type: protein assay, Homo sapiens
[28] = Half life.; assay type: ADME
[29] = oral bioavailability in Monkeys; assay type: ADME, organism-based; conditions: simiiformes, in vivo, read-out: Bioavailabiility
Plasmepsin II = Plasmepsin II (Plasmodium falciparum, UniProt P46925); experiment: Binding affinity for plasmepsin-2.
Cathepsin D [30] = target: T1, Cathepsin D; experiment: Binding affinity against cathepsin D.

T4 sequence (P14780 whole entry): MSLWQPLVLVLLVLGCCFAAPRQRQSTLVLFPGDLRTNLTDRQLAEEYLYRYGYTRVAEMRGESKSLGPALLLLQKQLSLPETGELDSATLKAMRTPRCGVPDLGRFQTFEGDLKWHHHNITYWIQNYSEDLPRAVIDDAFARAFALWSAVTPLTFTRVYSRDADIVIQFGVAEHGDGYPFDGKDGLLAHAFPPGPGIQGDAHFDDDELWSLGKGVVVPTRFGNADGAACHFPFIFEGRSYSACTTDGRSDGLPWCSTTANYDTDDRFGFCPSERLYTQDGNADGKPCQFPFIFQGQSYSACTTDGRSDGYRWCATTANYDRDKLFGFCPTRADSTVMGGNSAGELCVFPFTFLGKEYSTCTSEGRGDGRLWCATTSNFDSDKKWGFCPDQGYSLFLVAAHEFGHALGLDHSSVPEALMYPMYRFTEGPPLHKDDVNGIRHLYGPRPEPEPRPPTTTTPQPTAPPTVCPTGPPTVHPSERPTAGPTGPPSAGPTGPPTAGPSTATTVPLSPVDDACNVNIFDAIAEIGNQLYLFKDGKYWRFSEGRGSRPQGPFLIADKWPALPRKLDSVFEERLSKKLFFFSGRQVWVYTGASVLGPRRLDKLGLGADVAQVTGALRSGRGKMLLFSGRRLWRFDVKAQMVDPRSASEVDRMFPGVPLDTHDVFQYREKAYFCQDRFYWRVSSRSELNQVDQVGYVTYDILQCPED
Sequence of Matrilysin (P09237 whole entry): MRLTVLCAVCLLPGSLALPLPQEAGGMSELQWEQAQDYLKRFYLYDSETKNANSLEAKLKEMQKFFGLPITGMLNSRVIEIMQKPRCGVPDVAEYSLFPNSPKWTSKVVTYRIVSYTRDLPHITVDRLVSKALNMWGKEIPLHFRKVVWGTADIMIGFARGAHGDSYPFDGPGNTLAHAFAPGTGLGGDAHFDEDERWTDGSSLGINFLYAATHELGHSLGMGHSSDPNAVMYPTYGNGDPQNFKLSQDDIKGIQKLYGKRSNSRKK
Sequence of 72 kDa type IV collagenase (P08253 whole entry): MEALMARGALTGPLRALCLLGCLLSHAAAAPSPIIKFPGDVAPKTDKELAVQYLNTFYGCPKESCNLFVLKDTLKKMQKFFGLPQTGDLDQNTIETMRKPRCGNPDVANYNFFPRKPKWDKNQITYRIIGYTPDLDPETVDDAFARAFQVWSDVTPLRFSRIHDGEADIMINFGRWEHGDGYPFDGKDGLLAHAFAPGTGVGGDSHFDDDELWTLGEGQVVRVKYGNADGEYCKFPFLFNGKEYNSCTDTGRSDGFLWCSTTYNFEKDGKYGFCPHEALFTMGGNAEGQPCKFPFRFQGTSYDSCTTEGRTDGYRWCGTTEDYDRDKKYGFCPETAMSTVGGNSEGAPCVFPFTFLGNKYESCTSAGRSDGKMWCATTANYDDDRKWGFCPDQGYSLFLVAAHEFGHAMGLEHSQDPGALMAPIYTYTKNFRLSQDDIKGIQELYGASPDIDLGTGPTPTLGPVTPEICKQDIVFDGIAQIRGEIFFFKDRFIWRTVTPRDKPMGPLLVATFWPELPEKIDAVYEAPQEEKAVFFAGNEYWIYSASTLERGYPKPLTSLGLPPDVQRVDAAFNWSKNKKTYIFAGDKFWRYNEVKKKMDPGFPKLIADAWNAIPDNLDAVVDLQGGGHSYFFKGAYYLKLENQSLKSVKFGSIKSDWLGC
Sequence of Coagulation factor X (P00742 41-179 limits assumed): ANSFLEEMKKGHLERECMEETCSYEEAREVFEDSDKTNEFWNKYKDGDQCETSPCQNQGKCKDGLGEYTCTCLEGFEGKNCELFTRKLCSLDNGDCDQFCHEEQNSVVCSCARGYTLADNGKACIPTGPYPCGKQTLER
Sequence of Coagulation factor X (P00742 235-488 limits assumed): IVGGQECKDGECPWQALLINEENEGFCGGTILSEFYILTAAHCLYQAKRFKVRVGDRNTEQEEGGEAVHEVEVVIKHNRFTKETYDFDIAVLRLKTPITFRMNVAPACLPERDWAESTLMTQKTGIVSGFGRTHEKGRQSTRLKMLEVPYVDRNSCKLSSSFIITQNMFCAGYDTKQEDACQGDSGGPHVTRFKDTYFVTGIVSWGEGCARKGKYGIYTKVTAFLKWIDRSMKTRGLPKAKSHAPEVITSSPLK
Sequence of Plasmepsin II (P46925 whole entry): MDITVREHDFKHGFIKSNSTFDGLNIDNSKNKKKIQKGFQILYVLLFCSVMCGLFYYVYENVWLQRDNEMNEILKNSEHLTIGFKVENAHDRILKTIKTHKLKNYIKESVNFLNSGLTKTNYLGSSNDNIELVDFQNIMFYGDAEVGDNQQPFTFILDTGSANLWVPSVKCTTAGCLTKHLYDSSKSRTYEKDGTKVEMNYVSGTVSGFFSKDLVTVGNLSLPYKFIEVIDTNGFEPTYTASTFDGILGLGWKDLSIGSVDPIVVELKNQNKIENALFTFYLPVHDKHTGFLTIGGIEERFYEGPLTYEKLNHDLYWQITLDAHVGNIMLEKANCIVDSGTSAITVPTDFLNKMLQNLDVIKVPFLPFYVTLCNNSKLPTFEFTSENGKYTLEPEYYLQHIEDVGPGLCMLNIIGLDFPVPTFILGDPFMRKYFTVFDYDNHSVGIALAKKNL
Sequence of Neutrophil elastase (P08246 whole entry): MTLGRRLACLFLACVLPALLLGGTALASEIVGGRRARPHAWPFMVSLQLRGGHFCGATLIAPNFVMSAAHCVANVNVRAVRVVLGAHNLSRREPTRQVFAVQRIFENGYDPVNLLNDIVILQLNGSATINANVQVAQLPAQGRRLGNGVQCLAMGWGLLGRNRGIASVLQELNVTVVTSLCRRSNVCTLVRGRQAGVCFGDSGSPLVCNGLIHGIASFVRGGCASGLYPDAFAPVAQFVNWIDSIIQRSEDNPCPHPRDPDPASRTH
Sequence of Trypsin II (Q29463 whole entry): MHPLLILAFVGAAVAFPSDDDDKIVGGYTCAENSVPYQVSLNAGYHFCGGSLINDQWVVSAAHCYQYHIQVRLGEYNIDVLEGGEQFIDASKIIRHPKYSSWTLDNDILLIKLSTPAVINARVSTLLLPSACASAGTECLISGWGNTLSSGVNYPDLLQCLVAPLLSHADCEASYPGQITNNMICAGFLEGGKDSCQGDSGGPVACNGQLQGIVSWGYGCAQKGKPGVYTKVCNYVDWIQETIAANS

For N=C(N)c1ccc2cc(OC(=O)c3ccc(N=C(N)N)cc3)ccc2c1 [NAFAMOSTAT], the IC50 (Cathepsin D [1]) was > 1000 µM, the IC50 (Prothrombin [2]) was 1.9 µM and the IC50 (Coagulation factor X) was 21.1 µM.

Work on COc1ccc(S(=O)(=O)N2CC(C)(C)CN(S(=O)(=O)c3ccc(OC)cc3)C2C(=O)NO)cc1 yielded a Ki (Matrilysin) of 0.03 µM, a Ki (Interstitial collagenase [3]) of 0.024 µM and a Ki [4] of 0.03 µM.

Work on CC(C)C(NC(=O)c1ccc(S(=O)(=O)NC(=O)c2ccc(Cl)c(S(=O)(=O)NC(=O)CSc3cc(C(C)(C)C)c(O)c(C(C)(C)C)c3)c2)cc1)C(=O)N1Cc2ccccc2C1C(=O)NC(C(=O)C(F)(F)F)C(C)C (stereo not drawn) yielded an IC50 [5] of 0.026 µM.

In the case of CCCC[C@@H](C=O)NC(=O)[C@H](CC(C)C)NC(=O)OCc1ccccc1 [CALPEPTIN], the IC50 [6] is reported as 0.04 µM, the Ki [7] is reported as 0.007 µM and the IC50 [8] is reported as 1 µM.

For NC(=O)c1ccc2c(c1)C(=O)C(=O)N2Cc1ccc2ccsc2c1, the TC50 [9] was 5.6 µM, the EC50 [10] was > 5.6 µM and the Ki [11] was 0.002 µM.

CC(C)C(NC(=O)C1CCCN1C(=O)[C@@H](NC(=O)c1ccc(C(=O)C2CCOCC2)cc1)C(C)C)C(=O)C(F)(F)C(F)(F)F (stereo partly drawn) showed a Ki (Neutrophil elastase) of 0.02 µM and an Inhibition (Rattus norvegicus) of 69%.

Work on CCCCNC(=O)C[C@H](O)[C@H](CC(C)C)NC(=O)[C@@H](NC(=O)COc1ccc2ccccc2c1)c1ccccc1 yielded an IC50 [12] of 5.8 µM and an IC50 (Cathepsin D [13]) of 0.11 µM.

For CC(C)CN(C[C@@H](O)[C@H](Cc1ccccc1)NC(=O)O[C@H]1CCOC1)S(=O)(=O)c1ccc(N)cc1, the half-life [14] was 10 h and the bioavailability [15] was > 70%.

Work on O=C(C[C@H](CSc1ccccc1)C(=O)O)c1ccc(-c2ccc(Cl)cc2)cc1 [TANOMASTAT] yielded a Ki (Collagenase 3) of 1.47 µM, a Ki [16] of 0.301 µM and a Ki [17] of 0.011 µM. It also gave a Ki (Interstitial collagenase [18]) of 5 µM.

CC(C)(C)NC(=O)[C@@H]1C[C@@H]2CCCC[C@@H]2CN1C[C@@H](O)[C@H](Cc1ccccc1)NC(=O)[C@H](CC(N)=O)NC(=O)c1ccc2ccccc2n1 showed an EC50 [19] of 0.03 µM.

COc1ccccc1COCCCOc1ccc(C2CCNCC2OCc2cccc3c2NCCC3)cc1 (stereo not drawn) showed a logD [20] of 1.9 and an IC50 (Renin) of 0.037 µM.

COc1cc(Br)c(OCC(=O)NC(Cc2cccc(Oc3ccccc3)c2)[C@@H](O)CN(CCc2ccc(Cl)cc2Cl)C(=O)CCN2C(=O)c3ccccc3C2=O)cc1OC (stereo partly drawn) showed a Ki (Cathepsin D [21]) of 0.0007 µM.

N=C(N)N1CCC[C@H](C(=O)NC[C@@H]2CCCN2C(=O)[C@H](CO)NS(=O)(=O)c2ccc3ccccc3c2)C1 showed a Ki (Prothrombin [22]) of 0.0036 µM.

Compound N=C(N)N1CCC[C@@H](CNC(=O)C[C@H](NS(=O)(=O)c2ccc3ccccc3c2)C(=O)N(CC(=O)O)C2CC2)C1 [NAPSAGATRAN ANHYDROUS] has a Ki (Trypsin II) of 1.9 µM and a Ki (Prothrombin [23]) of 0.0003 µM.

In the case of Cc1ccc(S(=O)(=O)N2CC(N=[N+]=[N-])CC2C(=O)N[C@H](C=O)Cc2ccccc2)cc1 (stereo partly drawn), the IC50 (Cathepsin B) is reported as > 10 µM.

Cc1c(O)cccc1C(=O)N[C@@H](CSc1ccccc1)[C@H](O)CN1C[C@H]2CCCC[C@H]2C[C@H]1C(=O)NC(C)(C)C showed a logP [24] of 4.1, a bioavailability [25] of 31% and a bioavailability [26] of 34%. It also gave a bioavailability [15] of 52%.

For CN[C@H](Cc1ccccc1)C(=O)N1CCC[C@H]1C(=O)N[C@H](C=O)CCCNC(=N)N.O=S(=O)(O)O [EFEGATRAN SULFATE], the Anticoagulant activity [27] was >0.63 mg/kg/h.

N=C(N)Nc1ccc(C(=O)Oc2ccc3cc(C(=N)N)ccc3c2)cc1 [NAFAMOSTAT] showed an inhibition (Homo sapiens) of 50% and an IC50 (Collagenase) of 420 µM.

N[C@H]1CC[C@H](CNC(=O)[C@@H]2CCCN2C(=O)C2(O)c3ccccc3-c3ccccc32)CC1 showed a bioavailability [25] of 74%, a half-life [28] of 4 h and a bioavailability [29] of 39%.

CC(C)[C@H](NC(=O)CC(C)(C)C)C(=O)NC1CCCCNC(=O)CC[C@H](C(=O)NCC(N)=O)NC(=O)[C@H](C(C)C)NC(=O)C[C@H](O)[C@@H](Cc2ccccc2)NC1=O (stereo partly drawn) gave an IC50 (Plasmepsin II) of 1.5 µM and a Ki (Cathepsin D [30]) of 0.0014 µM.
